How the values were obtained:
[1] = target: T1, cPLA2 (Homo sapiens, UniProt P47712); test: Coumarin Assay (cPLA2 inhibition); assay type: biochemical
T1 sequence (P47712 1-749): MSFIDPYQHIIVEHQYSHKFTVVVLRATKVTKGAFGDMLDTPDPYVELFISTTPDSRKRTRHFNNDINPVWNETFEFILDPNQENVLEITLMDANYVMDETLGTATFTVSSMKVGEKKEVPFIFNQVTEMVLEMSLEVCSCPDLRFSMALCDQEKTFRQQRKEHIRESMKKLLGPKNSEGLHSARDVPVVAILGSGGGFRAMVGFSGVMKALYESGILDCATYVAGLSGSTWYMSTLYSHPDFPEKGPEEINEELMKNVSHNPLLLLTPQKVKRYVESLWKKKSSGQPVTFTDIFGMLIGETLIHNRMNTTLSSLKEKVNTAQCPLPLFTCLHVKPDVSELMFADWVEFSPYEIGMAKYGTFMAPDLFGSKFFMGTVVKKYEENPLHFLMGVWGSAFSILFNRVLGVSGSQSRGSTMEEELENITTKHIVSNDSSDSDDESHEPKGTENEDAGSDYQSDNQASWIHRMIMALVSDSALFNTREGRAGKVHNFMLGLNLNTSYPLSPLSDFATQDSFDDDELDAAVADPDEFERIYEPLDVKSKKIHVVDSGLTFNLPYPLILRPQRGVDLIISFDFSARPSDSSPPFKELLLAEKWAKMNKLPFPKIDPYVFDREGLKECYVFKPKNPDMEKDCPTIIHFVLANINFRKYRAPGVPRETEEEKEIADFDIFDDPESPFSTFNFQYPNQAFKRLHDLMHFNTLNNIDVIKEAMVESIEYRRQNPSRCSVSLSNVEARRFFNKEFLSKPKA
Method in brief: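 Percent inhibition at the stated concentration, from the rate of 460 nm emission rise (360 nm excitation) per minute. Reaction started by adding 4 μg enzyme to compound and 60 μM 7-hydroxycoumarinyl 6-heptenoate in Hepes buffer pH 7.5 with 1 mM EDTA.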

[2] = tested on: Rat Carrageenan-Induced Footpad Edema; test: Rat Carrageenan-Induced Footpad Edema Test; assay type: in vivo, male Sprague Dawley rats; conditions: IV, 5 mg/Kg, footpad volume 3 hours after carrageenan

With “4-({5-[(cyclopentylcarbonyl)amino]-1-[phenyl(2-pyridinyl)methyl]-1H-indol-3-yl}methyl)-3-methoxybenzoic acid [Example 44]” the “PERCENT INHIBITION @” value ([1]; CONCENTRATION 1.65 micromolar) was 50%, the “PERCENT INHIBITION @” value ([1]; CONCENTRATION 1.7 micromolar) was 50% and the “PERCENT INHIBITION @” value ([1]; CONCENTRATION 1.75 micromolar) was 50%. The “PERCENT INHIBITION @” value ([1]; CONCENTRATION 1.9 micromolar) was 50%, the “PERCENT INHIBITION @” value ([1]; CONCENTRATION 2.1 micromolar) was 50% and the “PERCENT INHIBITION @” value ([1]; CONCENTRATION 2.5 micromolar) was 71%. For the same compound, the “PERCENT INHIBITION @” value ([1]; CONCENTRATION 6.25 micromolar) was 97% and the “PERCENT INHIBITION” value [2] was 11.9%.
Compound `CCCn1cc(Cc2ccc(C(=O)NS(=O)(=O)c3ccccc3C)cc2OC)c2cc(NC(=O)OC3CCCC3)ccc21` [Example 2, Cyclopentyl N-{3-[2-methoxy-4-({[(2-methylphenyl)sulfonyl]amino}carbonyl)benzyl]-1-propyl-1H-indol-5-yl}carbamate] has an inhibition in vivo at 5 mg/kg ([2]; Rattus norvegicus, iv, 3 h, read-out: PERCENT INHIBITION) of 15.9%.
`O=C(O)c1ccc(OCCc2c(COCc3ccc(F)cc3F)n(C(c3ccccc3)c3ccccc3)c3ccc(Cl)cc23)cc1` [Example 162, 4-[2-(1-benzhydryl-5-chloro-2{[(2,4-difluorobenzyl)oxy]methyl}-1H-indol-3-yl)ethoxy]benzoic acid] showed an inhibition at 1.5 µM ([1]; Conc 1.5 uM, read-out: % Inhibition) of 50%.
With `N#Cc1ccc(COCc2c(CCOc3ccc(C(=O)O)cc3)c3cc(Cl)ccc3n2C(c2ccccc2)c2ccccc2)cc1` [Example 163, 4-[2-(1-benzhydryl-5-chloro-2{[(4-cynobenzyl)oxy]methyl}-1H-indol-3-yl)ethoxy]benzoic acid] the “% Inhibition” value ([1]; Conc 1.25 uM) was 50%.
`O=C(O)c1ccc(OCCc2c(COC/C=C/c3ccccc3)n(C(c3ccccc3)c3ccccc3)c3ccc(Cl)cc23)cc1` [Example 164, 4-{2-[1-benzhydryl-5-chloro-2-({[(E)-3-phenyl-2-propenyl]oxy}methyl)-1H -indol-3-yl)ethoxy]benzoic acid] was tested, and the inhibition at 3.5 µM ([1]; Conc 3.5 uM, read-out: % Inhibition) was 50%.
With `O=C(O)CCc1ccc(OCCc2c(COCc3ccc(F)cc3)n(C(c3ccccc3)c3ccccc3)c3ccc(Cl)cc23)cc1` [Example 165, 3-{4-[2-(1-benzhydryl-5-chloro-2-{[(4-fluorobenzyl)oxy]methyl}-1H-indol-3-yl)ethoxy]phenyl}propanoic acid] the inhibition at 0.8 µM ([1]; Conc 0.8 uM, read-out: % Inhibition) was 50%.
Work on `O=C(O)CCc1ccc(OCCc2c(CO)n(C(c3ccccc3)c3ccccc3)c3ccc(Cl)cc23)cc1` [Example 167, 3-(4-{2-[1-benzhydryl-5-chloro-2-(hydroxymethyl)-1H-indol-3-yl]ethoxy}phenyl)propanoic acid] yielded an inhibition at 1.3 µM ([1]; Conc 1.3 uM, read-out: % Inhibition) of 50%.
`O=C(O)CCc1ccc(S(=O)(=O)CCc2c(CO)n(C(c3ccccc3)c3ccccc3)c3ccc(Cl)cc23)cc1` [Example 168, 3-[4-({2-[1-benzhydryl-5-chloro-2-(hydroxymethyl)-1H-indol-3-yl]ethyl}sulfonyl)phenyl]propanoic acid] gave an inhibition at 2.4 µM ([1]; Conc 2.4 uM, read-out: % Inhibition) of 50%.
`Cc1c(CCS(=O)(=O)c2ccc(CCC(=O)O)cc2)c2cc(Cl)ccc2n1C(c1ccccc1)c1ccccc1` [Example 169, 3-(4-{[2-(1-Benzhydryl-5-chloro-2-methyl-1H-indol-3-yl)ethyl]sulfonyl}phenyl)propanoic acid] was tested, and the inhibition at 0.45 µM ([1]; Conc 0.45 uM, read-out: % Inhibition) was 50%.
`Cc1c(CCSc2ccc(CCC(=O)O)cc2)c2cc(Cl)ccc2n1C(c1ccccc1)c1ccccc1` [Example 170, 3-(4 {[2-(1-benzhydryl-5-chloro-2-methyl-1H-indol-3-yl)ethyl]sulfanyl}phenyl)propanoic acid] showed an inhibition at 0.5 µM ([1]; Conc 0.5 uM, read-out: % Inhibition) of 50%.
For `Cc1c(CCOc2ccc(CCC(=O)O)cc2)c2cc(Cl)ccc2n1C(c1ccccc1)c1ccccc1` [Example 171, 3-{4-[2-(1-Benzhydryl-5-chloro-2-methyl-1H-indol-3-yl)ethoxy]phenyl}propanoic acid (10)], the “% Inhibition” value ([1]; Conc 0.4 uM) was 50%.

— patent publication US6500853B1, “Inhibitors of phospholipase enzymes” (Genetics Institute, LLC, priority 1998, dated 2002)
